Laboratory results from patent US10385057B2, “Pyrazole compounds and methods of making and using same” (Lundbeck La Jolla Research Center, Inc., priority 2015, dated 2019).

Columns and labels:
[1] = molecular target: T1, MAGL (Mus musculus, UniProt O35678); assay: In vitro competitive activity-based protein profiling, mouse MAGL; type: biochemical; conditions: for inhibition at 1 µM: read-out: MAGL % inh. 1 μM (mouse)
T1 construct: mouse brain membrane fraction or cell lysates for mouse assays; from tissue
T1 sequence (O35678 1-303): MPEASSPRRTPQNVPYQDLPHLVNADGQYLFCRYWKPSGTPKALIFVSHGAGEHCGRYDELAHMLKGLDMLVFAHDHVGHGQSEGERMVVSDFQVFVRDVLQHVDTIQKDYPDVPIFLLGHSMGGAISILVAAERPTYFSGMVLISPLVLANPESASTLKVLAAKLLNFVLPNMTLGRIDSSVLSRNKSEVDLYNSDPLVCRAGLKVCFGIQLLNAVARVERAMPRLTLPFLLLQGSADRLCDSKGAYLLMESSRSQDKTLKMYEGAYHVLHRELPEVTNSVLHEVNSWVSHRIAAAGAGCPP
Summary of the method: (§1)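 Activity measured as fluorescent gel-band intensity of MAGL and FAAH after SDS-PAGE. Before labelling with FP-Rh or HT-01 (30 min, 37 °C), proteomes at 1.0 mg/mL (mouse brain membrane or lysates; human prefrontal cortex or cell membranes) were exposed to varying inhibitor concentrations for 30 min at 37 °C.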

[2] = molecular target: T2, FAAH (Mus musculus, UniProt O08914); assay: In vitro competitive activity-based protein profiling, mouse FAAH; type: biochemical; conditions: for inhibition at 1 µM: read-out: FAAH % inh. 1 μM (mouse)
T2 construct: mouse brain membrane fraction or cell lysates for mouse assays; from tissue
T2 sequence (O08914 1-579): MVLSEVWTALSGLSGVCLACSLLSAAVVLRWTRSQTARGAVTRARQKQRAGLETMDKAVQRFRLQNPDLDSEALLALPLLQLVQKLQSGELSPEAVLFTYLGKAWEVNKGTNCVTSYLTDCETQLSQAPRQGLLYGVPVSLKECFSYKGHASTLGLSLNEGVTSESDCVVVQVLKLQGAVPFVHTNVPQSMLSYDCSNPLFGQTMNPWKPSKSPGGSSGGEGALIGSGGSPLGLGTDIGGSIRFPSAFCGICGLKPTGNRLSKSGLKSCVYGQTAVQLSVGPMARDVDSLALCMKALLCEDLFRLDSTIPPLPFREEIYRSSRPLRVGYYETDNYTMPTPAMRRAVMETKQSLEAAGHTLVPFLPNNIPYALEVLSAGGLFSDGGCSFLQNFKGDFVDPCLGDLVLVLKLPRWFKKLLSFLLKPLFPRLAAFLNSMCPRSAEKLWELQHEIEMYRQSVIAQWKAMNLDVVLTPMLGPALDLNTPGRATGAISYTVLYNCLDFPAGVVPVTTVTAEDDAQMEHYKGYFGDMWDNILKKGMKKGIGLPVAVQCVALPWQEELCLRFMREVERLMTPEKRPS
Summary of the method: as §1

SMILES | IC50 [1] | inhibition at 1 µM [1] | IC50 [2] | inhibition at 1 µM ([2]; 1 μM) | MAGL % inh. 1 μM (mouse) [1] | FAAH % inh. 1 μM (mouse) ([2]; 1 μM)
CC(=O)N(Cc1ccc(Cl)cc1)[C@@H]1C[C@@H]2CN(C(=O)n3cc(Cl)cn3)C[C@@H]2C1 [Example 69, N-(cis-2-(4-chloro-1H-pyrazole-1-carbonyl)octahydrocyclopenta[c]pyrrol-5-yl)-N-(4-chlorobenzyl)acetamide] | ≤ 0.1 µM | ≥ 75% | ≤ 0.1 µM | ≥ 75% |  | 
CC(=O)N(Cc1ccc(Cl)cc1)[C@H]1C[C@@H]2CN(C(=O)n3cc(Cl)cn3)C[C@@H]2C1 [Example 70, N-(trans-2-(4-chloro-1H-pyrazole-1-carbonyl)octahydrocyclopenta[c]pyrrol-5-yl)-N-(4-chlorobenzyl)acetamide] |  | ≥ 75% |  | 50 to 75% |  | 
O=C(N1C[C@H]2C[C@@H](NCc3ccc(Cl)cc3)C[C@H]2C1)n1cc(Cl)cn1 [Example 71, (4-chloro-1H-pyrazol-1-yl)(cis-5-((4-chlorobenzyl)amino)hexahydrocyclopenta[c]pyrrol-2(1H)-yl)methanone] | 0.1 to 1 µM | ≥ 75% | 0.1 to 1 µM | ≥ 75% |  | 
CN(Cc1cccc(Cl)c1)[C@H]1C[C@@H]2CN(C(=O)n3cc(Cl)cn3)C[C@@H]2C1 [Example 72, (4-chloro-1H-pyrazol-1-yl)(trans-5-((3-chlorobenzyl)(methyl)amino)hexahydrocyclopenta[c]pyrrol-2(1H)-yl)methanone] | ≤ 0.1 µM | ≥ 75% | ≤ 0.1 µM | ≥ 75% |  | 
O=C(N1C[C@H]2C[C@H](NCc3ccc(Cl)cc3)C[C@H]2C1)n1cc(Cl)cn1 [Example 73, (4-chloro-1H-pyrazol-1-yl)(trans-5-((4-chlorobenzyl)amino)hexahydrocyclopenta[c]pyrrol-2(1H)-yl)methanone] | 0.1 to 1 µM | ≥ 75% | ≤ 0.1 µM | ≥ 75% |  | 
CC(=O)N(Cc1cccc(Cl)c1)[C@H]1C[C@@H]2CN(C(=O)n3cc(Cl)cn3)C[C@@H]2C1 [Example 74, N-(trans-2-(4-chloro-1H-pyrazole-1-carbonyl)octahydrocyclopenta[c]pyrrol-5-yl)-N-(3-chlorobenzyl)acetamide] |  | ≥ 75% |  | ≥ 75% |  | 
O=C(N1C[C@H]2C[C@H](NCc3cccc(Cl)c3)C[C@H]2C1)n1cc(Cl)cn1 [Example 75, (4-chloro-1H-pyrazol-1-yl)(trans-5-((3-chlorobenzyl)amino)hexahydrocyclopenta[c]pyrrol-2(1H)-yl)methanone] | ≤ 0.1 µM | ≥ 75% | ≤ 0.1 µM | ≥ 75% |  | 
CN(Cc1ccc(C(F)(F)F)cc1)[C@@H]1C[C@@H]2CN(C(=O)n3cc(Cl)cn3)C[C@@H]2C1 [Example 76, (4-chloro-1H-pyrazol-1-yl)(cis-5-(methyl(4-(trifluoromethyl)benzyl)amino)hexahydrocyclopenta[c]pyrrol-2(1H)-yl)methanone] | ≤ 0.1 µM | ≥ 75% | ≤ 0.1 µM | ≥ 75% |  | 
CN(Cc1ccc(N2CCOCC2)cc1)[C@@H]1C[C@@H]2CN(C(=O)n3cc(Cl)cn3)C[C@@H]2C1 [Example 77, (4-chloro-1H-pyrazol-1-yl)(cis-5-(methyl(4-morpholinobenzyl)amino)hexahydrocyclopenta[c]pyrrol-2(1H)-yl)methanone] | 1 to 10 µM | 50 to 75% | 0.1 to 1 µM | ≥ 75% |  | 
CN(Cc1ccc(C(F)(F)F)cc1)[C@H]1C[C@@H]2CN(C(=O)n3cc(Cl)cn3)C[C@@H]2C1 [Example 78, (4-chloro-1H-pyrazol-1-yl)(trans-5-(methyl(4-(trifluoromethyl)benzyl)amino)hexahydrocyclopenta[c]pyrrol-2(1H)-yl)methanone] | ≤ 0.1 µM | ≥ 75% | ≤ 0.1 µM | ≥ 75% |  | 
CN(Cc1ccc(N2CCOCC2)cc1)[C@H]1C[C@@H]2CN(C(=O)n3cc(Cl)cn3)C[C@@H]2C1 [Example 79, (4-chloro-1H-pyrazol-1-yl)(trans-5-(methyl(4-morpholinobenzyl)amino)hexahydrocyclopenta[c]pyrrol-2(1H)-yl)methanone] |  | 50 to 75% |  | ≥ 75% |  | 
CN(Cc1cccc(C(F)(F)F)c1)[C@@H]1C[C@@H]2CN(C(=O)n3cc(Cl)cn3)C[C@@H]2C1 [Example 80, (4-chloro-1H-pyrazol-1-yl)(cis-5-(methyl(3-(trifluoromethyl)benzyl)amino)hexahydrocyclopenta[c]pyrrol-2(1H)-yl)methanone] | ≤ 0.1 µM | ≥ 75% | ≤ 0.1 µM | ≥ 75% |  | 
CN(Cc1cccc(N2CCOCC2)c1)[C@@H]1C[C@@H]2CN(C(=O)n3cc(Cl)cn3)C[C@@H]2C1 [Example 81, (4-chloro-1H-pyrazol-1-yl)(cis-5-(methyl(3-morpholinobenzyl)amino)hexahydrocyclopenta[c]pyrrol-2(1H)-yl)methanone] | 1 to 10 µM | 25 to 50% | ≤ 0.1 µM | ≥ 75% |  | 
CN(Cc1cccc(N2CCOCC2)c1)[C@H]1C[C@@H]2CN(C(=O)n3cc(Cl)cn3)C[C@@H]2C1 [Example 82, (4-chloro-1H-pyrazol-1-yl)(trans-5-(methyl(3-morpholinobenzyl)amino)hexahydrocyclopenta[c]pyrrol-2(1H)-yl)methanone] | 0.1 to 1 µM | ≥ 75% | 0.1 to 1 µM | ≥ 75% |  | 
CN(Cc1cccc(C(F)(F)F)c1)[C@H]1C[C@@H]2CN(C(=O)n3cc(Cl)cn3)C[C@@H]2C1 [Example 83, (4-chloro-1H-pyrazol-1-yl)(trans-5-(methyl(3-(trifluoromethyl)benzyl)amino)hexahydrocyclopenta[c]pyrrol-2(1H)-yl)methanone] | ≤ 0.1 µM | ≥ 75% | ≤ 0.1 µM | ≥ 75% |  | 
CNC(=O)c1cnn(C(=O)N2C[C@H]3C[C@@H](N(C)Cc4ccccc4Cl)C[C@H]3C2)c1 [Example 84, 1-(cis-5-((2-chlorobenzyl)(methyl)amino)octahydrocyclopenta[c]pyrrole-2-carbonyl)-N-methyl-1H-pyrazole-4-carboxamide] |  |  |  |  | A (% inhibition greater than or equal to 75%) | A (% inhibition greater than or equal to 75%)
CN(Cc1ccccc1Cl)[C@@H]1C[C@@H]2CN(C(=O)n3cc(C(=O)N4CCOCC4)cn3)C[C@@H]2C1 [Example 85, (cis-5-((2-chlorobenzyl)(methyl)amino)hexahydrocyclopenta[c]pyrrol-2(1H)-yl)(4-(morpholine-4-carbonyl)-1H-pyrazol-1-yl)methanone] |  | 50 to 75% |  | ≥ 75% |  | 
CN(Cc1ccccc1Cl)[C@H]1C[C@@H]2CN(C(=O)n3cc(C(=O)N4CCOCC4)cn3)C[C@@H]2C1 [Example 86, (trans-5-((2-chlorobenzyl)(methyl)amino)hexahydrocyclopenta[c]pyrrol-2(1H)-yl)(4-(morpholine-4-carbonyl)-1H-pyrazol-1-yl)methanone] |  | 50 to 75% |  | ≥ 75% |  | 
CN(Cc1ccccc1Cl)[C@@H]1C[C@@H]2CN(C(=O)n3cc(C(=O)N4CCN(C5CC5)CC4)cn3)C[C@@H]2C1 [Example 87, (cis-5-((2-chlorobenzyl)(methyl)amino)hexahydrocyclopenta[c]pyrrol-2(1H)-yl)(4-(4-cyclopropylpiperazine-1-carbonyl)-1H-pyrazol-1-yl)methanone] |  | 25 to 50% |  | 0 to 25% |  | 
CN(Cc1ccccc1Cl)[C@@H]1C[C@@H]2CN(C(=O)n3cc(C(=O)N4CCCC4)cn3)C[C@@H]2C1 [Example 89, (cis-5-((2-chlorobenzyl)(methyl)amino)hexahydrocyclopenta[c]pyrrol-2(1H)-yl)(4-(pyrrolidine-1-carbonyl)-1H-pyrazol-1-yl)methanone] |  |  |  | ≥ 75% | C (% inhibition greater than or equal to 25% and less than 50%) | 
CNC(=O)c1cnn(C(=O)N2C[C@H]3C[C@@H](N(C)Cc4ccccc4C(F)(F)F)C[C@H]3C2)c1 [Example 91, N-methyl-1-(cis-5-(methyl(2-(trifluoromethyl)benzyl)amino)octahydrocyclopenta[c]pyrrole-2-carbonyl)-1H-pyrazole-4-carboxamide] |  | 50 to 75% |  | ≥ 75% |  | 
